From publication PMC9532755, “Impact of lactisole on the time-intensity profile of selected sweeteners in dependence of the binding site” (Food Chemistry: X, 2022)

Test system: perceived sweet intensity (panelists)
Assay: Sensory time-intensity (TI) measurement of sweetness by a trained panel
Assay type: in vivo, human
Conditions: for AUC of time-intensity curve / lingering (intensity at 90 sec) / onset (time-point of first maximum intensity) / max. int. (maximum sweet intensity): lactisole alone, mean ± SEM; for AUC of time-intensity curve: 180 sec evaluation; for max. int. (maximum sweet intensity): unstructured scale 0-100
Text: All panelists gave their written informed consent for participating in the panel and had to complete a sensory training. […] On a last training day, the evaluation on unstructured scales and the time-dependent evaluation on the computer were trained. All panelists reported to be in good general health condition, and not being under medication or pregnant. At least one hour before every training or tasting, panelists were instructed not to smoke and not to consume intense tasting food or beverage (e.g. coffee, chili, garlic, chewing gum) and to avoid in general strong hunger or fullness as well as strong odors or perfume on test days.
Every test solution was assessed randomly at two different test days with at least 8 panelists participating per replicate. The panelists were free to choose to participate at the different test days. A maximum of five test compounds were assessed in one session. All samples were coded with three-digit random code and presented to the panelists in randomized order. On each test day, panelists were presented five sweet solutions with 0, 25, 50, 100 and 200 g/L sucrose as a scale training for the ratings from “not at all” to “very intensive” sweetness. […] The three minutes of evaluation were chosen to capture as much of the lingering as possible without wearing out the panelists during the evaluation. A total of 350 measuring time points was recorded within the pre-set time frame, especially to see differences in the first seconds of evaluation, which are important for the onset. The panelists were asked to take the sample (20 mL) into their mouth, while starting the timer and simultaneously the evaluation of sweet intensity over the time, and to spit out the sample after ten seconds while continuing the evaluation of the sweetness intensity until the end of the three minutes.
For comparison of the time-dependent properties, the following descriptors were used: the maximum intensity at the first 30 sec of evaluation as “max. intensity”, the time-point of the first maximum intensity as “onset” in sec, […], and the area under the curve from the time-intensity plots as “AUC” as a marker for the overall intensity and duration.
All sensory experiments were conducted at the Christian Doppler Laboratory for Taste Research at the Institute for Physiological Chemistry, University of Vienna, Austria, at room temperature (21 – 23 °C). • Calcium mobilization assay
The statistical analysis and graphical representation were performed with GraphPad Prism 9.0 for sensory results and with SigmaPlot 14.0 for cell experiments. To evaluate the sensory dose–response effects of ascending sweetener concentration w/o lactisole, an asymmetrical five-parameter curve (Richard́s five-parameter dose–response curve) was fitted. The data are presented as means ± SEM from at least 16 single evaluations. Statistical significance between the different test compounds and concentration-dependent effects was assessed by two-way ANOVAs with Tukey post hoc test using Graph Pad Prism. The normal distribution of the data sets was checked by evaluation of the kurtosis (between −7 to + 7) and the skewness (between −3 to + 3). Equal variance was tested using Levenés test. In case the assumptions of a normal distribution and equal variance were not met, the non-parametric ANOVA on ranks (Kruskal-Wallis Test) with Dunn's post-hoc test without the calculation of interaction was applied. A Pearson product moment correlation was conducted to investigate relationships between sensory results and cell responses of the tested sweeteners.

COc1ccc(OC(C)C(=O)O)cc1 (stereo not drawn) [lactisole, sodium 2-(4-methoxyphenoxy) propanoate]
time after which a sweet perception (sweet aftertaste) was reported (lactisole 0.46 mM and 0.92 mM, sip-and-spit, spit out after ten seconds): around 30 sec | AUC of time-intensity curve (0.46 mM): 4285 ± 926 | lingering (intensity at 90 sec) (0.46 mM): 16.96 ± 3.9 | onset (time-point of first maximum intensity) (0.46 mM): 106.0 ± 19.8 s | max. int. (maximum sweet intensity) (0.46 mM): 23.3 ± 4.0 | AUC of time-intensity curve (0.92 mM): 5990 ± 1122 | lingering (intensity at 90 sec) (0.92 mM): 21.12 ± 3.8 | onset (time-point of first maximum intensity) (0.92 mM): 144.9 ± 21.9 s | max. int. (maximum sweet intensity) (0.92 mM): 29.8 ± 4.2
